# Measurements reported in the supplement of paper PMC6045584.
# ± gives the standard deviation of the averaged measurements.
# Experiments:
# EVEROLIMUS = compound: CO[C@H]1C[C@@H]2CC[C@@H](C)[C@@](O)(O2)C(=O)C(=O)N2CCCC[C@H]2C(=O)O[C@H]([C@H](C)C[C@@H]2CC[C@@H](OCCO)[C@H](OC)C2)CC(=O)[C@H](C)/C=C(\C)[C@@H](O)[C@@H](OC)C(=O)[C@H](C)C[C@H](C)/C=C/C=C/C=C/1C [EVEROLIMUS]; assay: surviving fraction relative to DMSO-only wells; higher = less growth inhibition; conditions: exposure time: 5 days
# Summary of the method: (§1)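 Surviving fraction is CellTiter-Glo luminescence divided by the median of wells given DMSO only. For this, log-phase tumour cell lines went into 384-well plates at 250–500 cells per well and, 24 hours later, into five days of continuous inhibitor exposure at 0.5, 1, 5, 10, 50, 100, 500 and 1000 nM. Lines were screened three times and retained only if replicate Pearson r >0.7 and median Z' >0.3.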
# ETOPOSIDE = compound: COc1cc([C@@H]2c3cc4c(cc3[C@@H](O[C@@H]3O[C@@H]5CO[C@@H](C)O[C@H]5[C@H](O)[C@H]3O)[C@H]3COC(=O)[C@H]23)OCO4)cc(OC)c1O [ETOPOSIDE]; assay: as above; conditions: exposure time: 5 days
# Summary of the method: as §1
Test System,surviving fraction (EVEROLIMUS; 0.5 nM),surviving fraction (EVEROLIMUS; 1 nM),surviving fraction (EVEROLIMUS; 5 nM),surviving fraction (EVEROLIMUS; 10 nM),surviving fraction (EVEROLIMUS; 50 nM),surviving fraction (EVEROLIMUS; 100 nM),surviving fraction (EVEROLIMUS; 500 nM),surviving fraction (EVEROLIMUS; 1000 nM),surviving fraction (ETOPOSIDE; 0.5 nM),surviving fraction (ETOPOSIDE; 1 nM),surviving fraction (ETOPOSIDE; 5 nM),surviving fraction (ETOPOSIDE; 10 nM),surviving fraction (ETOPOSIDE; 50 nM),surviving fraction (ETOPOSIDE; 100 nM),surviving fraction (ETOPOSIDE; 500 nM),surviving fraction (ETOPOSIDE; 1000 nM)
NOS1 BONE,0.77 ± 0.073,0.655 ± 0.039,0.607 ± 0.022,0.536 ± 0.048,0.491 ± 0.03,0.461 ± 0.052,0.415 ± 0.019,0.362 ± 0.023,1.11 ± 0.12,1.01 ± 0.099,1.33 ± 0.24,1.19 ± 0.12,0.977 ± 0.08,0.91 ± 0.24,0.601 ± 0.075,0.623 ± 0.074
NY BONE,0.789 ± 0.012,0.766 ± 0.024,0.729 ± 0.01,0.688 ± 0.019,0.692 ± 0.013,0.707 ± 0.015,0.644 ± 0.032,0.6403 ± 0.0042,1.01 ± 0.033,1.01 ± 0.035,1.07 ± 0.032,1.09 ± 0.066,1.07 ± 0.05,1.06 ± 0.03,0.797 ± 0.033,0.592 ± 0.021
OS25HAL BONE,0.863 ± 0.044,0.846 ± 0.0091,0.679 ± 0.029,0.622 ± 0.042,0.598 ± 0.014,0.581 ± 0.039,0.546 ± 0.034,0.52 ± 0.022,1 ± 0.018,0.996 ± 0.018,1.01 ± 0.015,1.01 ± 0.0071,1.07 ± 0.041,1.04 ± 0.019,0.497 ± 0.022,0.231 ± 0.024
OSHN BONE,1.06 ± 0.014,1.03 ± 0.038,0.991 ± 0.035,0.983 ± 0.026,1.05 ± 0.054,1.06 ± 0.024,1.04 ± 0.057,1.06 ± 0.023,1.05 ± 0.025,1.05 ± 0.042,1.06 ± 0.046,1.06 ± 0.041,1.07 ± 0.042,1.07 ± 0.048,0.452 ± 0.042,0.174 ± 0.0076
PCI30 HEADNECK,0.715 ± 0.07,0.6 ± 0.029,0.52 ± 0.027,0.508 ± 0.02,0.5 ± 0.051,0.508 ± 0.025,0.463 ± 0.03,0.468 ± 0.013,0.943 ± 0.1,1.03 ± 0.025,1.02 ± 0.09,1 ± 0.041,1.07 ± 0.05,1.01 ± 0.053,0.579 ± 0.063,0.424 ± 0.031
RDES SOFT TISSUE,1.09 ± 0.067,1.1 ± 0.099,1.11 ± 0.039,1.11 ± 0.087,0.981 ± 0.049,1.03 ± 0.12,1 ± 0.13,1.04 ± 0.063,1.08 ± 0.022,1.16 ± 0.21,1.1 ± 0.11,1.11 ± 0.071,0.854 ± 0.21,1.15 ± 0.3,0.232 ± 0.03,0.0647 ± 0.0021
S68 BREAST,0.839 ± 0.17,0.547 ± 0.045,0.479 ± 0.048,0.434 ± 0.049,0.356 ± 0.06,0.336 ± 0.043,0.26 ± 0.027,0.285 ± 0.024,0.939 ± 0.27,1.1 ± 0.18,1.01 ± 0.072,1.44 ± 0.12,1.07 ± 0.22,0.776 ± 0.095,0.369 ± 0.016,0.297 ± 0.024
SAOS2 BONE,1.13 ± 0.094,1.12 ± 0.054,1.0323 ± 0.00058,0.943 ± 0.044,0.909 ± 0.048,0.936 ± 0.025,0.826 ± 0.064,0.71 ± 0.049,1.03 ± 0.027,1.06 ± 0.028,1.17 ± 0.02,1.16 ± 0.049,1.13 ± 0.035,1.147 ± 0.011,0.783 ± 0.04,0.439 ± 0.022
SCC36 HEADNECK,1.07 ± 0.056,1.09 ± 0.14,1.03 ± 0.018,0.899 ± 0.061,1.008 ± 0.0093,0.909 ± 0.097,0.842 ± 0.031,0.733 ± 0.014,1.13 ± 0.12,1.05 ± 0.18,1.1 ± 0.12,1.08 ± 0.1,1.02 ± 0.052,1.15 ± 0.086,0.668 ± 0.035,0.512 ± 0.0061
SCC47 HEADNECK,1.02 ± 0.053,1 ± 0.017,1.01 ± 0.053,0.95 ± 0.024,0.961 ± 0.053,0.961 ± 0.043,0.937 ± 0.16,0.843 ± 0.032,1.04 ± 0.11,1.05 ± 0.039,1.02 ± 0.025,1.08 ± 0.079,1.11 ± 0.071,1.06 ± 0.084,0.799 ± 0.07,0.575 ± 0.027
SCC90 HEADNECK,0.857 ± 0.032,0.816 ± 0.08,0.68 ± 0.048,0.643 ± 0.028,0.556 ± 0.019,0.563 ± 0.039,0.522 ± 0.063,0.5257 ± 0.0047,1.02 ± 0.099,1.11 ± 0.12,1.18 ± 0.092,1.2 ± 0.2,1.22 ± 0.15,1.13 ± 0.13,0.999 ± 0.18,0.878 ± 0.21
SG27 HEADNECK,1.1 ± 0.11,1.02 ± 0.019,0.978 ± 0.07,1.01 ± 0.046,0.871 ± 0.037,0.904 ± 0.11,0.92 ± 0.046,0.903 ± 0.08,1.12 ± 0.081,1.05 ± 0.11,0.975 ± 0.12,1.05 ± 0.14,1.08 ± 0.15,1.04 ± 0.037,1.09 ± 0.14,0.985 ± 0.14
SG28 HEADNECK,1.15 ± 0.028,1.09 ± 0.026,0.879 ± 0.063,0.8505 ± 0.005,0.809 ± 0.026,0.767 ± 0.0028,0.68 ± 0.0028,0.775 ± 0.0028,1.18 ± 0.046,1.19 ± 0.063,1.13 ± 0.075,1.15 ± 0.044,1.07 ± 0.2,1.09 ± 0.093,1.05 ± 0.029,0.969 ± 0.11
SG31 HEADNECK,0.931 ± 0.077,0.905 ± 0.11,0.638 ± 0.041,0.62 ± 0.01,0.641 ± 0.035,0.591 ± 0.1,0.539 ± 0.035,0.574 ± 0.047,1.05 ± 0.092,1.06 ± 0.04,1.1 ± 0.11,1.13 ± 0.14,0.946 ± 0.11,0.969 ± 0.11,0.856 ± 0.087,0.837 ± 0.058
SG32 HEADNECK,1.22 ± 0.19,1.22 ± 0.15,1.44 ± 0.47,1.01 ± 0.14,0.813 ± 0.052,0.601 ± 0.082,0.556 ± 0.025,0.499 ± 0.026,1.23 ± 0.076,1.3 ± 0.13,1.37 ± 0.11,1.2 ± 0.17,1.1 ± 0.098,1 ± 0.14,0.726 ± 0.042,0.608 ± 0.11
